Assay results reported in patent US20230066011A1, “PYRROLOPYRIMIDINE DERIVATIVE, AND PHARMACEUTICAL COMPOSITION FOR PREVENTING OR TREATING PROTEIN KINASE-RELATED DISEASE COMPRISING SAME AS ACTIVE INGREDIENT” (VORONOI CO., LTD., priority 2019, published 2023).

Columns and labels:
Assay type in all cases: biochemical
human GST-CLK1 = target: T1, human GST-CLK1 (Homo sapiens, UniProt P49759); assay: GST-CLK1 enzyme inhibition, ADP-Glo kinase assay; conditions: ATP 10 μM, GST-CLK1 129-end
T1 construct: purified human GST-CLK1 (129-end, SignalChem) enzyme; purchased SignalChem
In short: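 ADP-Glo luminescence read-out, relative to untreated solvent control, gave IC50 (nM) from triplicate data sets. Reactions ran an hour at 25° C with 3 ng GST-CLK1 (residues 129-end), 10 μM ATP and specific substrate in Tris-HCl pH 7.4 buffer with MgCl2, BSA and DTT.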

LRRK2 (G2019S) = LRRK2 (G2019S) (Homo sapiens, UniProt Q5S007, G2019S); assay: LRRK2 G2019S enzyme inhibition, ADP-Glo kinase assay; design: purchased SignalChem L10-12GG; conditions: ATP 25 μM
In short: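 IC50 derived from luminescent ADP-Glo readout against untreated solvent control, twelve final compound concentrations from 50 μM downward. Reaction: recombinant human LRRK2 G2019S enzyme, 25 μM ATP, substrate, pH 7.4 Tris buffer with MgCl2/BSA/DTT, 25° C. for 2 hours.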

human GST-DYRK1A = target: T2, human GST-DYRK1A (Homo sapiens, UniProt Q13627); assay: GST-DYRK1A enzyme inhibition, ADP-Glo kinase assay; conditions: ATP 10 μM, GST-DYRK1A full length, read-out: DYRK1 IC50
T2 construct: purified human GST-DYRK1A (full length, Thermo Scientifics) enzyme; purchased Thermo Scientifics
In short: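 Full-length enzyme (10 ng) was incubated with 10 μM ATP and a specific substrate for 1 h at 25 °C in 40 mM Tris-HCl pH 7.4, 20 mM MgCl2, 0.5 mg/mL BSA, 50 μM DTT. Luminescence was read against a solvent control, and IC50 values were derived from 3 data sets.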

LRRK2 = LRRK2 (Homo sapiens, UniProt Q5S007); assay: LRRK2 enzyme inhibition, ADP-Glo kinase assay; design: purchased Invitrogen PR8604B; conditions: ATP 10 μM
In short: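 ADP-Glo luminescent read-out of ADP formed by purified human LRRK2 enzyme (25 ng), 10 μM ATP, 0.2 μg substrate, 25° C for 2 h, Tris-HCl pH 7.4 buffer with MgCl2, BSA, DTT. Inhibition versus untreated solvent control over twelve final concentrations (50 μM downward) gives IC50.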

Chain of LRRK2 (Q5S007 970-2527 limits assumed): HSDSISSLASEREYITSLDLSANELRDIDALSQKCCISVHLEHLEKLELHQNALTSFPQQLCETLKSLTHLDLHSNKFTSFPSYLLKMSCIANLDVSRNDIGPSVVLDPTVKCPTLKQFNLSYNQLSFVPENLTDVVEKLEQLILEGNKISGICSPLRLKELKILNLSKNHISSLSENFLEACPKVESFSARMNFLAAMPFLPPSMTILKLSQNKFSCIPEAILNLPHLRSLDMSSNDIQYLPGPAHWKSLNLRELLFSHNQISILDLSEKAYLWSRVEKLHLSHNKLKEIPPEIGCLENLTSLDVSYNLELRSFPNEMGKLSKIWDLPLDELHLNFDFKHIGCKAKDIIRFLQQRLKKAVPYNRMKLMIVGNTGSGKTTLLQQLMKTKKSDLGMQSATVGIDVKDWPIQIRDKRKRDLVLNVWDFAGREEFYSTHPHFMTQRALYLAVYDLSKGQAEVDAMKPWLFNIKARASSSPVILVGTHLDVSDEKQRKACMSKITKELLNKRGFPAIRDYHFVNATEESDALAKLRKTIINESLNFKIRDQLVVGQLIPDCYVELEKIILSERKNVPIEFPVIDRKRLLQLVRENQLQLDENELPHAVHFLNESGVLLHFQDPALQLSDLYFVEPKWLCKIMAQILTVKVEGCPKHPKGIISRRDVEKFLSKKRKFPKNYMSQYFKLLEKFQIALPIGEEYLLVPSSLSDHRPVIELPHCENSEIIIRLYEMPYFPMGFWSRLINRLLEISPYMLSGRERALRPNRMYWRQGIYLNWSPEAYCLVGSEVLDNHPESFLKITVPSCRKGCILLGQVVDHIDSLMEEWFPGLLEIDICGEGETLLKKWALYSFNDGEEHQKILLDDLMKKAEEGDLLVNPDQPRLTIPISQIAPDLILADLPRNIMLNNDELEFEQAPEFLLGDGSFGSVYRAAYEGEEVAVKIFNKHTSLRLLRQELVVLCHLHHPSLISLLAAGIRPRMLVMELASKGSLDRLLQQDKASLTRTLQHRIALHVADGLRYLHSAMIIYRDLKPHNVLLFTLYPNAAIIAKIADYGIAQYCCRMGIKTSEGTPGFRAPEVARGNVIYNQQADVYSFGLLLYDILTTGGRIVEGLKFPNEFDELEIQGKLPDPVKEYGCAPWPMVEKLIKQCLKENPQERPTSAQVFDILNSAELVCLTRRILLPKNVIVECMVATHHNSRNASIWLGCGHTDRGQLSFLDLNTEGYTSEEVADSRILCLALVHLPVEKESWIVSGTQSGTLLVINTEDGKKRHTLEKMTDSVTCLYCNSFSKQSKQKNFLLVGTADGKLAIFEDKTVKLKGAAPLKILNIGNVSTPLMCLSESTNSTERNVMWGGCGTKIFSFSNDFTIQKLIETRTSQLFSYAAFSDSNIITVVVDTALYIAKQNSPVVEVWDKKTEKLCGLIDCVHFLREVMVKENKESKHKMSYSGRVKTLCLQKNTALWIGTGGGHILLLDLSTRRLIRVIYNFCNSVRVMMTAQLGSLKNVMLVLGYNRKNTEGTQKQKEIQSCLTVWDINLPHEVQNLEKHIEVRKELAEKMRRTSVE
T1 sequence (P49759 129-484 limits assumed): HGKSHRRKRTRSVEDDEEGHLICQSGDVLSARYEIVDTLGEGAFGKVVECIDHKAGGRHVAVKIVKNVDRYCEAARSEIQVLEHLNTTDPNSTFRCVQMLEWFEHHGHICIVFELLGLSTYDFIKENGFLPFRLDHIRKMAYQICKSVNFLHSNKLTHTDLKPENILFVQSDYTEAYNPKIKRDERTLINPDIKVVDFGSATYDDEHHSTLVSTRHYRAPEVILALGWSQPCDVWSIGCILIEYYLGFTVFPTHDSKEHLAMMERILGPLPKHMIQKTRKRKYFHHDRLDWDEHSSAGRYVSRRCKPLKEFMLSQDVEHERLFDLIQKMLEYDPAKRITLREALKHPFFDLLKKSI
Chain of LRRK2 (G2019S) (Q5S007 970-2527 G2019S limits assumed): as the sequence (Q5S007 970-2527 limits assumed) above, with G1050S counted along it

| SMILES | IC50 (human GST-CLK1) | IC50 (LRRK2 (G2019S)) | IC50 (human GST-DYRK1A) | IC50 (LRRK2) |
| --- | --- | --- | --- | --- |
| COCC(C)(C)Nc1nc(Nc2ccc(S(C)(=O)=O)cc2OC)nc2[nH]cc(C(F)(F)F)c12 [Example 177, N^4-(1-methoxy-2-methylpropan-2-yl)-N^2-(2-methoxy-4-(methylsulfonyl)phenyl)-5-(trifluoromethyl)-7H-pyrrolo[2,3-d]pyrimidine-2,4-diamine] | 301 to 1000 nM | 301 to 1000 nM | 301 to 1000 nM | 301 to 1000 nM |
| CCCNc1nc(Nc2ccc(S(C)(=O)=O)cc2OC)nc2[nH]cc(C#N)c12 [Example 99, 2-((2-methoxy-4-(methylsulfonyl)phenyl)amino)-4-(propylamino)-7H-pyrrolo[2,3-d]pyrimidine-5-carbonitrile] | 301 to 1000 nM | 101 to 300 nM | 301 to 1000 nM | < 100 nM |
| CNc1nc(Nc2ccc(C(=O)N3CCC(N4CCOCC4)CC3)c3c2OCCO3)nc2[nH]cc(C#N)c12 [Example 136, 4-(methylamino)-2-((8-(4-morpholinopiperidine-1-carbonyl)-2,3-dihydrobenzo[b][1,4]dioxin-5-yl)amino)-7H-pyrrolo[2,3-d]pyrimidine-5-carbonitrile] | < 100 nM | < 100 nM | 101 to 300 nM | < 100 nM |
| CCCNc1nc(Nc2ccc(C(=O)N3CCOCC3)c3c2OCCO3)nc2[nH]cc(C(F)(F)F)c12 [Example 162, morpholino(8-((4-(propylamino)-5-(trifluoromethyl)-7H-pyrrolo[2,3-d]pyrimidin-2-yl)amino)-2,3-dihydrobenzo[b][1,4]dioxin-5-yl)methanone] | 301 to 1000 nM | < 100 nM | 301 to 1000 nM | < 100 nM |
| N#Cc1c[nH]c2nc(Nc3ccc(C(=O)N4CCOCC4)c4c3OCCO4)nc(NC3COC3)c12 [Example 135, 2-((8-(morpholine-4-carbonyl)-2,3-dihydrobenzo[b][1,4]dioxin-5-yl)amino)-4-(oxetan-3-ylamino)-7H-pyrrolo[2,3-d]pyrimdine-5-carbonitrile] | 301 to 1000 nM | 301 to 1000 nM | 301 to 1000 nM | 301 to 1000 nM |
| CC(C)Nc1nc(Nc2ccc(C(=O)N3CCOCC3)c3c2OCCO3)nc2[nH]cc(C(F)(F)F)c12 [Example 167, (8-((4-(isopropylamino)-5-(trifluoromethyl)-7H-pyrrolo[2,3-d]pyrimidin-2-yl)amino)-2,3-dihydrobenzo[b][1,4]dioxin-5-yl)(morpholino)methanone] | 301 to 1000 nM | < 100 nM | 301 to 1000 nM | < 100 nM |
| O=C(c1ccc(Nc2nc(NC3CC3)c3c(C(F)(F)F)c[nH]c3n2)c2c1OCCO2)N1CCOCC1 [Example 182, (8-((4-(cyclopropylamino)-5-(trifluoromethyl)-7H-pyrrolo[2,3-d]pyrimidin-2-yl)amino)-2,3-dihydrobenzo[b][1,4]dioxin-5-yl)(morpholino)methanone] | 301 to 1000 nM | < 100 nM | 301 to 1000 nM | < 100 nM |
| N#Cc1c[nH]c2nc(Nc3ccc(C(=O)N4CCC(N5CCOCC5)CC4)c4c3OCCO4)nc(NC3CC3)c12 [Example 141, 4-(cyclopropylamino)-2-((8-(4-morpholinopiperidine-1-carbonyl)-2,3-dihydrobenzo[b][1,4]dioxin-5-yl)amino)-7H-pyrrolo[2,3-d]pyrimidine-5-carbonitrile] | < 100 nM | < 100 nM | 301 to 1000 nM | < 100 nM |
| CCCNc1nc(Nc2ccc(C(=O)N3CCOCC3)c3c2OCCO3)nc2[nH]cc(C#N)c12 [Example 120, 2-((8-(morpholine-4-carbonyl)-2,3-dihydrobenzo[b][1,4]dioxin-5-yl)amino)-4-(propylamino)-7H-pyrrolo[2,3-d]pyrimidine-5-carbonitrile] | < 100 nM | < 100 nM | 101 to 300 nM | < 100 nM |
| CCNc1nc(Nc2ccc(C(=O)N3CCOCC3)c3c2OCCO3)nc2[nH]cc(C#N)c12 [Example 119, 4-(ethylamino)-2-((8-(morpholine-4-carbonyl)-2,3-dihydrobenzo[b][1,4]dioxin-5-yl)amino)-7H-pyrrolo[2,3-d]pyrimidine-5-carbonitrile] | < 100 nM | < 100 nM | 301 to 1000 nM | < 100 nM |
| C=CCNc1nc(Nc2ccc(S(=O)(=O)N3CCC(N4CCOCC4)CC3)cc2OC)nc2[nH]ccc12 [Example 247, N4-allyl-N2-(2-methoxy-4-((4-morpholinopiperidin-1-yl)sulfonyl)phenyl)-7H-pyrrolo[2,3-d]pyrimidine-2,4-diamine] | 301 to 1000 nM | < 100 nM | 301 to 1000 nM | < 100 nM |
| COCCNc1nc(Nc2ccc(C(=O)N3CCOCC3)c3c2OCCO3)nc2[nH]cc(C#N)c12 [Example 123, 4-((2-methoxyethyl)amino)-2-((8-(morpholine-4-carbonyl)-2,3-dihydrobenzo[b][1,4]dioxin-5-yl)amino)-7H-pyrrolo[2,3-d]pyrimidine-5-carbonitrile] | < 100 nM | < 100 nM | 101 to 300 nM | < 100 nM |
| N#Cc1c[nH]c2nc(Nc3ccc(C(=O)N4CCC(N5CCOCC5)CC4)c4c3OCCO4)nc(NC3CCC3)c12 [Example 259, 4-(cyclobutylamino)-2-((8-(4-morpholinopiperidine-1-carbonyl)-2,3-dihydrobenzo[b][1,4]dioxin-5-yl)amino)-7H-pyrrolo[2,3-d]pyrimidine-5-carbonitrile] | < 100 nM | < 100 nM | 101 to 300 nM | < 100 nM |
| CC[C@@H](C)Nc1nc(Nc2ccc(C(=O)N3CCOCC3)c3c2OCCO3)nc2[nH]cc(C(F)(F)F)c12 [Example 174, (R)-(8-((4-(sec-butylamino)-5-(trifluoromethyl)-7H-pyrrolo[2,3-d]pyrimidin-2-yl)amino)-2,3-dihydrobenzo[b][1,4]dioxin-5-y)(morpholino)methanone] | 301 to 1000 nM | < 100 nM | 301 to 1000 nM | < 100 nM |
| O=C(c1ccc(Nc2nc(NC3CC3)c3c(C(F)(F)F)c[nH]c3n2)c2c1OCCO2)N1CCC(N2CCOCC2)CC1 [Example 367, (8-((4-(cyclopropyl-amino)-5-(trifluoromethyl)-7H-pyrrolo[2,3-d]pyrimidin-2-yl)amino)-2,3-dihydrobenzo[b] [1,4]dioxin-5-yl)(4-morpho-linopiperidin-1-yl)methanone] | < 100 nM | < 100 nM | 101 to 300 nM | < 100 nM |
| COCCNc1nc(Nc2ccc(S(=O)(=O)N3CCOCC3)cc2OC)nc2[nH]ccc12 [Example 19, N^2-(2-methoxy-4-(morpholinosulfonyl)phenyl)-N^4-(2-methoxyethyl)-7H-pyrrolo[2,3-d]pyrimidine-2,4-diamine] | 301 to 1000 nM | < 100 nM | 301 to 1000 nM | < 100 nM |
| C=CCNc1nc(Nc2ccc(S(=O)(=O)N3CCOCC3)cc2OC)nc2[nH]ccc12 [Example 246, N4-allyl-N2-(2-methoxy-4-(morpholinosulfonyl)phenyl)-7H-pyrrolo[2,3-d]pyrimidine-2,4-diamine] | 301 to 1000 nM | < 100 nM | 301 to 1000 nM | < 100 nM |
| COc1cc(S(C)(=O)=O)ccc1Nc1nc(NC2CCC2)c2c(C(F)(F)F)c[nH]c2n1 [Example 184, N^4-cyclobutyl-N^2-(2-methoxy-4-(methylsulfonyl)phenyl)-5-(trifluoromethyl)-7H-pyrrolo[2,3-d]pyrimidine-2,4-diamine] | 101 to 300 nM | 101 to 300 nM | 301 to 1000 nM | < 100 nM |
| O=C(c1ccc(Nc2nc(NC3CCC3)c3c(C(F)(F)F)c[nH]c3n2)c2c1OCCO2)N1CCC(N2CCOCC2)CC1 [Example 378, (8-((4-(cyclobutyl-amino)-5-(trifluoromethyl)-7H-pyrrolo[2,3-d]pyrimidin-2-yl)amino)-2,3-dihydrobenzo[b] [1,4]dioxin-5-yl) (4-morpholino-piperidin-1-yl)methanone] | < 100 nM | < 100 nM | 101 to 300 nM | < 100 nM |
| COc1cc(S(C)(=O)=O)ccc1Nc1nc(NC2CC2)c2c(C(F)(F)F)c[nH]c2n1 [Example 376, N^4-cyclopropyl-N^2-(2-methoxy-4-(methylsulfonyl)phenyl)-5-(trifluoromethyl)-7H-pyrrolo[2,3-d]pyrimidine-2,4-diamine] | 101 to 300 nM | < 100 nM | 301 to 1000 nM | < 100 nM |
| COc1cc(S(C)(=O)=O)ccc1Nc1nc(NC(C)C)c2c(C(F)(F)F)c[nH]c2n1 [Example 166, N^4-isopropyl-N^2-(2-methoxy-4-(methylsulfonyl)-phenyl)-5-(trifluoromethyl)-7H-pyrrolo[2,3-d]pyrimidine-2,4-diamine] | 301 to 1000 nM | 101 to 300 nM | 301 to 1000 nM | < 100 nM |
